In patent publication US20260224592A1, “COMPOSITIONS AND METHODS FOR TREATING SEVERE […]” (SHENZHEN HIGHTIDE BIOPHARMACEUTICAL LTD., priority 2023, published 2026):

Assays:
[1] = test system: high fat diet induced hyperlipidemia/NAFLD hamster model; experiment: Study B: hyperlipidemia/NAFLD hamster model, BUDCA versus UDCA or BBR-Cl, 6 weeks treatment; assay type: in vivo, golden hamster; settings: for Serum lipids HDL-c / Serum lipids LDL-c / Serum lipids TC / Serum lipids TG: 6 weeks daily oral, equimolar high doses: 200 mg/kg BUDCA; for Serum lipids HDL-c / Serum lipids LDL-c / Serum lipids TC / Serum lipids TG / Liver TC / Liver TG / Proportion of oil red O staining positive area / Steatosis Score of HE staining: 107.8 mg/kg UDCA, 102.2 mg/kg BBR-Cl, mean ± SEM; for Liver TC / Liver TG / Proportion of oil red O staining positive area / Steatosis Score of HE staining: 200 mg/kg BUDCA
Protocol: Study B was conducted using the same hamster model as described in Study A to evaluate the efficacy of BUDCA as well as to compare the effects of BUDCA with equivalent doses of either UDCA or BBR-Cl on their own. The model was induced with the same method as indicated in Study A. After the 2-week induction period, hamsters were randomized into treatment groups and continued the high fat diet for an additional 6-week period, concurrent with the daily oral administration of various doses of BUDCA (Low dose: […]; Medium dose: 100 mg/mL; […]), BBR-Cl on its own (Low dose: 51.1 mg/mL; […]), UDCA on its own (Low dose: 53.9 mg/mL; […]), or a 1:1 physical mixture of BBR-Cl and UDCA equivalent to a lower dose of BUDCA (105.0 mg/mL). A model control group continued the high fat diet and normal control group fed the standard diet were both administered the vehicle 0.5% carboxymethyl cellulose sodium (CMC-Na) solution. All animals were sacrificed for terminal evaluations at the end of the 6-week dosing period.
Endpoints evaluated included serum lipids (TC, TG, LDL-C, HDL-C), liver lipid content (TC and TG), liver injury (ALT, AST, total bile acids (TBA) and total bilirubin (TBIL)), liver weight (expressed relative to body weight as liver index), macroscopic observation and histopathology evaluation of the livers. Histopathology endpoints included pathologist observation, as well as numerical comparison via the nonalcoholic fatty liver disease activity score (NAS) and a fibrosis severity score.
Terminal endpoints in model control animals also confirmed increased liver weight and histopathology of the liver as evidenced by steatosis, hepatocytes swelling, punctate necrosis, inflammatory cell infiltration and local fibrosis. Therefore, the model was not only able to replicate key characteristics of the NAFLD disease spectrum in humans, but also hyperlipidemia.

subjects with HTG = experiment: Pooled analysis of Study C and Study D in subjects with HTG (baseline TGs above 200 mg/dL); assay type: in vivo, human; settings: for placebo-corrected median percent change from baseline in TGs: end of treatment
Protocol: Efficacy was also tested in two clinical studies that established merits for further clinical study in patients with SHTG: Study C was conducted in adults with hypercholesterolemia and […] and T2DM. A pooled analysis was conducted based on these two studies specifically evaluating the data from subjects who had HTG at baseline (TG 200 mg/dL).
To further investigate the potential of BUDCA for lowering TGs in patients with elevated TGs, a pooled analysis across studies Study C and Study D was conducted focusing on the subjects with baseline TGs above 200 mg/dL (HTG) (Table 6). The analysis pooled the baseline and end of treatment timepoints for this evaluation as the two studies had different durations (4 weeks vs 18 weeks).

[2] = test system: overweight or obese adults with hypercholesterolemia; experiment: Study C: Phase 1b/2a study in overweight or obese adults with hypercholesterolemia, 28 days; assay type: in vivo, human; settings: BUDCA 250, 500 or 1000 mg BID, maximum reductions relative to placebo after 14 days
Protocol: In a Phase 1b/2a study, 50 overweight or obese adults with hypercholesterolemia were enrolled and treated with BUDCA for 28 days. The primary objective was to evaluate safety and tolerability of BUDCA. Given that the subjects enrolled in this study were obese with a history of hypercholesteremia, the focus of the efficacy and PD endpoints was lipid metabolism. Key entry criteria included BMI 2 and LDL-C, BUDCA 250 mg BID (N=12), BUDCA 500 mg BID (N=12), or BUDCA 1000 mg BID (N=12).
While all subjects had hypercholesteremia at baseline, TG levels generally ranged from normal to mild HTG (three subjects from each of placebo, BUDCA 500 mg BID, and BUDCA 1000 mg BID had TG values >200 mg/dL) and HDL-C levels were generally in the normal range.

[3] = test system: adults with NASH and T2DM; experiment: Study D: randomized, double-blind, placebo-controlled Phase 2 study in adults with NASH and T2DM, 18 weeks; assay type: in vivo, human
Protocol: Study D was a randomized, double-blind, placebo-controlled Phase 2 study in adults with NASH and T2DM. The primary objective of this study was to evaluate the change from baseline in liver fat content as assessed by MRI-PDFF, but also evaluated changes in key cardiometabolic parameters, including lipids. Key entry criteria included the clinical diagnosis of NASH and T2DM and BMI >25.0 kg/m2. Subjects were randomized and treated with placebo (N=33), BUDCA 500 mg BID (N=33), or BUDCA 1000 mg BID (N=34) for 18 weeks (Harrison 2021).
Demographic characteristics were generally well balanced among treatment groups. The median age overall was 57 years (range: 26 to 75 years), and there were 72% females and 28% males. Most subjects were White (91%) and not Hispanic or Latino (62%). Mean baseline weight and BMI were similar across treatment groups. On average, LDL-C was elevated and near the upper limit of the normal range and TGs were elevated above the normal. Baseline values for HbA1c, ALT, GGT, liver fat content, and cT1 were similar across treatment groups.
Study D evaluated the effects of BUDCA on lipids as secondary efficacy endpoints. On average, subjects had near-normal LDL-C at baseline with borderline-high levels of TG. While the average values were generally similar across treatment groups, it should be noted that LDL-C was lower in the BUDCA 500 mg BID treatment group while TGs were lower in the BUDCA 1000 mg BID treatment group (Table 6). […] Reductions in TGs with the […] dose were statistically significant compared with placebo. Reduced TG levels were paralleled with a reduction in LDL-C after 18 weeks of treatment with BUDCA 1000 mg BID (−13%), but not with BUDCA 500 mg BID (3%) or with placebo (0%).

[4] = test system: high fat diet induced hyperlipidemia/NAFLD hamster model; experiment: Study A: high-fat/high-cholesterol diet induced hyperlipidemia/NAFLD hamster model, 7 weeks treatment; assay type: in vivo, Male Golden Syrian hamsters; settings: for HDL-c (serum) / LDL-c (serum) / PCSK9 (serum) / TC (serum) / TG (serum) / AI value (atherosclerosis index): mean ± SEM; for AI value (atherosclerosis index): AI = (TC − HDL-c)/HDL-c
Protocol: Various pre-clinical and clinical studies were performed to evaluate safety and efficacy of BUDCA. Primary and secondary pharmacodynamics studies were performed. Specific to nonclinical proof of concept for BUDCA in SHTG, the efficacy of BUDCA on hyperlipidemia/NAFLD was evaluated in two studies (Study A and Study B) using a high fat diet induced hyperlipidemia/NAFLD hamster model. Dietary induced changes in hamsters can be considered a valid model for dyslipidemia.
Male Golden Syrian hamsters were fed with a high-fat/high-cholesterol diet which contained 1.25% cholesterol, 20.06% grease (2.79% soybean oil, 17.27% cocoa butter) to establish the hyperlipidemia/NAFLD model. After 2 weeks of high-fat/high-cholesterol diet inducement, 24 hamsters with fasting TC level 17.96±1.70 mmol/L were selected and divided into 3 groups of 8 hamsters each (model group G1, 50 mg/kg/day BUDCA group G2, and 200 mg/kg/day BUDCA group G3). Eight hamsters comprising the normal control were fed with a normal chow diet.
The normal and Model control groups received vehicle (10 mL/kg 0.5% gum tragacanth solution), while the two BUDCA treatment groups received BUDCA, via intragastric administration for 7 weeks prior to sacrifice.
During the treatment period, blood was collected at weeks 1, 3, 5, and 7, for biochemical analysis including serum TC, TG, HDL-c, LDL-c, and liver enzymes. At the end of the study, animals were sacrificed for liver macroscopic observation and liver tissues were collected for histopathological evaluations and liver lipid contents.

[5] = both doses of BUDCA, HTG subgroup
[6] = 50 mg/kg/day BUDCA intragastric, 7 weeks
[7] = 200 mg/kg/day BUDCA intragastric, 7 weeks

COc1ccc2cc3[n+](cc2c1OC)CCc1cc2c(cc1-3)OCO2.[Cl-] [BBR-Cl]
Serum lipids HDL-c [1]: 5.24 ± 0.30 mmol/L | Serum lipids LDL-c [1]: 6.53 ± 1.10 mmol/L | Serum lipids TC [1]: 14.86 ± 1.23 mmol/L | Serum lipids TG [1]: 3.72 ± 0.37 mmol/L | Liver TC ([1]; 6 weeks): 29.27 ± 4.47 mg/g | Liver TG ([1]; 6 weeks): 19.18 ± 2.24 mg/g | Proportion of oil red O staining positive area ([1]; 6 weeks): 18.97 ± 2.43 % | Steatosis Score of HE staining ([1]; 6 weeks): 2.75 ± 0.16

COc1ccc2cc3[n+](cc2c1OC)CCc1cc2c(cc1-3)OCO2.C[C@H](CCC(=O)[O-])[C@H]1CC[C@H]2[C@@H]3[C@@H](O)C[C@@H]4C[C@H](O)CC[C@]4(C)[C@H]3CC[C@]12C [BUDCA, Berberine Ursodeoxycholate]
Serum lipids HDL-c [1]: 4.25 ± 0.40 mmol/L | Serum lipids LDL-c [1]: 1.26 ± 0.15 mmol/L | Serum lipids TC [1]: 7.03 ± 0.73 mmol/L | Serum lipids TG [1]: 2.06 ± 0.39 mmol/L | Liver TC ([1]; 6 weeks): 4.59 ± 0.84 mg/g | Liver TG ([1]; 6 weeks): 3.92 ± 0.50 mg/g | Proportion of oil red O staining positive area ([1]; 6 weeks): 1.18 ± 0.69 % | Steatosis Score of HE staining ([1]; 6 weeks): 1.00 ± 0.38 | serum TC and TG, LDL-C, ALT, AST, TBA, TBIL, liver weight, liver TC and TG, NAS score, and fibrosis (score and % area) ([1]; relative to model control animals, low, medium and high dose BUDCA, 6 weeks): reduced all the following parameters in a dose dependent manner | beneficial effects on most parameters, including serum lipids and liver lipid deposition, compared with the individual moieties ([1]; versus equivalent doses of UDCA or BBR administered alone): greater than those achieved with either UDCA or BBR when administered alone | placebo-corrected median percent change from baseline in TGs (subjects with HTG; BUDCA 500 mg BID, 95% CI (−52.63, 17.93)): −12.3% | HDL-C at the end of treatment (subjects with HTG; BUDCA 1000 mg BID, HTG population): increase in HDL-C | placebo-corrected median percent change from baseline in TGs (subjects with HTG; BUDCA 1000 mg BID, 95% CI (−55.57, 16.61)): −17.7% | change from baseline to end of treatment in body weight (subjects with HTG; BUDCA 1000 mg BID, subjects with HTG, based solely on one of the two studies): -4.6 kg | LDL-C at the end of treatment (subjects with HTG; both doses of BUDCA (500 and 1000 mg BID), HTG population): decrease in LDL-C | HbA1c (subjects with HTG; [5]): no worsening of HbA1c | fasting plasma glucose (subjects with HTG; [5]): decrease in fasting plasma glucose | serum lipid levels [2]: decreased in a dose-dependent fashion | HbA1c change from baseline ([3]; 18 weeks of BUDCA treatment (500 and 1000 mg BID), in contrast to increase with placebo): Significant dose dependent reductions | LDL-C, change from baseline to week 18 ([3]; BUDCA 500 mg BID, 18 weeks): 3% | TG levels, change from baseline to week 18 ([3]; BUDCA 500 mg BID, 18 weeks): −9% | mean change in fasting plasma glucose ([3]; BUDCA 500 mg BID, 18 weeks): -18 mg/dL | LDL-C, change from baseline to week 18 ([3]; BUDCA 1000 mg BID, 18 weeks): −13% | TG levels, change from baseline to week 18 ([3]; BUDCA 1000 mg BID, 18 weeks): −11% | mean change in fasting plasma glucose ([3]; BUDCA 1000 mg BID, 18 weeks): -22 mg/dL | change from baseline in body weight ([3]; BUDCA 1000 mg BID, 18 weeks, p<0.05 vs placebo): -3.5 kg | HDL-c (serum) [4, 6]: 3.42 ± 0.28 mmol/L | LDL-c (serum) [4, 6]: 2.95 ± 1.72 mmol/L | PCSK9 (serum) [4, 6]: 124.9 ± 16.8 pg/mL | TC (serum) [4, 6]: 9.78 ± 2.58 mmol/L | TG (serum) [4, 6]: 3.88 ± 1.21 mmol/L | Liver TC ([4]; 50 mg/kg/day BUDCA, 7 weeks): 14.62 ± 4.89 mg/g | Liver TG ([4]; 50 mg/kg/day BUDCA, 7 weeks): 5.40 ± 2.64 mg/g | AI value (atherosclerosis index) ([4]; 50 mg/kg/day BUDCA, 7 weeks): 1.88 ± 0.83 | HDL-c (serum) [4, 7]: 2.53 ± 0.29 mmol/L | LDL-c (serum) [4, 7]: 1.23 ± 0.28 mmol/L | PCSK9 (serum) [4, 7]: 179.0 ± 30.9 pg/mL | TC (serum) [4, 7]: 4.95 ± 0.84 mmol/L | TG (serum) [4, 7]: 1.90 ± 0.66 mmol/L | Liver TC ([4]; 200 mg/kg/day BUDCA, 7 weeks): 3.82 ± 1.78 mg/g | Liver TG ([4]; 200 mg/kg/day BUDCA, 7 weeks): 5.61 ± 1.98 mg/g | AI value (atherosclerosis index) ([4]; 200 mg/kg/day BUDCA, 7 weeks): 0.95 ± 0.19 | serum PCSK9 levels compared to the Model control group ([4]; 7-weeks of BUDCA treatment, P<0.05): significantly reduced | serum TG, TC, LDL-c levels, and AI compared to the model group ([4]; BUDCA 50 and 200 mg/kg/day, 7 weeks, P<0.01, dose-dependent): significantly reduced | liver contents of TG and TC compared to the model group ([4]; both doses of BUDCA, 7 weeks, P<0.01): significantly decreased

C[C@H](CCC(=O)O)[C@H]1CC[C@H]2[C@@H]3[C@@H](O)C[C@@H]4C[C@H](O)CC[C@]4(C)[C@H]3CC[C@]12C [UDCA]
Serum lipids HDL-c [1]: 4.81 ± 0.15 mmol/L | Serum lipids LDL-c [1]: 3.83 ± 0.47 mmol/L | Serum lipids TC [1]: 10.13 ± 0.73 mmol/L | Serum lipids TG [1]: 2.17 ± 0.18 mmol/L | Liver TC ([1]; 6 weeks): 17.95 ± 4.04 mg/g | Liver TG ([1]; 6 weeks): 11.24 ± 2.69 mg/g | Proportion of oil red O staining positive area ([1]; 6 weeks): 11.72 ± 4.65 % | Steatosis Score of HE staining ([1]; 6 weeks): 2.13 ± 0.35
